The values that follow come from patent publication US4346087A, “Antibacterial surface active agent containing azaalkenelactam” (priority 1979, dated 1982).

One test deals with Escherichia coli NIHJ. Put plainly: MIC against Escherichia coli NIHJ. Conditions: Escherichia coli. It counts as cell-based. An excerpt: (§1) Below are described the antibacterial activities of the compounds in the compositions according to this invention.
(§2) The testing method complied with the standard method of Japan Sociaty of Chemotherapy.

Test [1] deals with Staphylococcus aureus FDA 209P. The experiment in a line: MIC against Staphylococcus aureus FDA 209P. To be noted: Staphylococcus aureus, FDA209P. Type of test: cell-based.
Excerpt: as §1, §2

In test [2] the test system is Desulfovibrio desulfuricans IFO 13699. Put plainly: MIC against Desulfovibrio desulfuricans. It counts as cell-based. Conditions: Desulfovibrio desulfuricans.
Excerpt: as §1, §2

For test [3], the system named is Pseudomonas aruginosa IFO 3443. Put plainly: MIC against Pseudomonas aeruginosa. Type of test: cell-based. To be noted: Pseudomonas.
Excerpt: (§3) Below are described the antibacterial activities of the compounds in the compositions according to this invention. The results of antibacterial activity tests on the N-alkyl-substituted azaalkenelactams and their derivatives having a carboxylate radical of Examples 1 to 70 were as shown in Tables 1 to 3.
as §2

The test system of test [4] is Bacillus subtilis ATCC 6633. The experiment in a line: MIC against Bacillus subtilis ATCC 6633. Type of test: cell-based. Conditions: Bacillus subtilis.
Excerpt: as §3, §2

The test system of another test is Pasteurella multocida. The experiment in a line: MIC against Pasteurella multocida. Type of test: cell-based. Conditions: Pasteurella multocida.
Excerpt: as §3, §2

The subject of another test is Salmonella typhinurium. The experiment in a line: microbe, parasite or virus in culture. Type of test: cell-based, Salmonella typhimurium.
Excerpt: as §3, §2

Test [5] deals with Staphylococcus epidermidis. Put plainly: MIC against Staphylococcus epidermidis. It counts as cell-based. To be noted: Staphylococcus epidermidis.
Excerpt: as §3, §2

A further test deals with Streptococcus faecalis. The experiment in a line: MIC against Streptococcus faecalis. Type of test: cell-based. To be noted: Enterococcus faecalis.
Excerpt: as §3, §2

Where [6] appears, read: Table 1, azaalkenelactams, heart infusion agar, 37° C., 24 hours, read-out: MIC.
Where [7] appears, read: IFO13699, Table 1, azaalkenelactams, heart infusion agar, 37° C., 24 hours, read-out: MIC.
Where [8] appears, read: IFO3443, Table 3, heart infusion agar, 37° C., 24 hours, read-out: MIC.
[9] abbreviates: ATCC6633, Table 3, heart infusion agar, 37° C., 24 hours, read-out: MIC.
[10] abbreviates: Table 3, heart infusion agar, 37° C., 24 hours, read-out: MIC.

Structures are written as SMILES. Values after ≈ are worked out from the molar mass of the structure shown. Read-outs that look alike come from different tables or passages of the source.

`CCCCCCCCCCCCCCNCCN1CCN=C(C)CC1=O` [Example 35, 4-tetradecylaminoethyl-7-methyl-3,6-dihydro-2H-1,4-diazepin-5-one]: the MIC was 6.25 µg/mL (≈ 17.1 µM) in the test on Escherichia coli NIHJ (24 h); 1.56 µg/mL (≈ 4.27 µM) in test [1] (setting [6]); 1.56 µg/mL (≈ 4.27 µM) in test [2] (setting [7]); 54 µg/mL (≈ 148 µM) in test [3] (setting [8]); 3.12 µg/mL (≈ 8.53 µM) in test [4] (setting [9]); less than 1.56 µg/mL with Pasteurella multocida (24 h). Further, the MIC is 1.56 µg/mL (≈ 4.27 µM) in the test on Salmonella typhinurium (setting [10]), less than 1.56 µg/mL in test [5] (24 h) and 3.12 µg/mL (≈ 8.53 µM) with Streptococcus faecalis (setting [10]).

With `CCCCCCCCCCCCCCC(O)CNCCN1CCCN=CC(C)(C)C1=O` (stereo not drawn) [Example 61, 1-(2-hydroxyhexadecyl)aminoethyl-3,3-dimethyl-6,7,8-trihydro-1,5-diazocin-5-one], the MIC was 25 µg/mL (≈ 57.1 µM) against Escherichia coli NIHJ (24 h); 6.25 µg/mL (≈ 14.3 µM) in [1] (24 h); 6.25 µg/mL (≈ 14.3 µM) in [2] (IFO13699, 24 h); 200 µg/mL (≈ 457 µM) in [3] (IFO3443, 24 h); 3.12 µg/mL (≈ 7.13 µM) in test [4] (ATCC6633, 24 h); less than 1.56 µg/mL in the test with Pasteurella multocida (setting [10]). The MIC is 3.12 µg/mL (≈ 7.13 µM) in the test with Salmonella typhinurium (setting [10]), 1.56 µg/mL (≈ 3.56 µM) in test [5] (setting [10]) and 6.25 µg/mL (≈ 14.3 µM) against Streptococcus faecalis (24 h).

On to `CCCCCCCCCCCCNCCN1CCN=C(C)CC1=O` [Example 2, 4-dodecylaminoethyl-7-methyl-3,6-dihydro-2H-1,4-diazepin-5-one], for which the MIC in the test on Escherichia coli NIHJ (setting [6]) was 25 µg/mL (≈ 74.1 µM); in test [1] (setting [6]) it was 12.5 µg/mL (≈ 37 µM); in test [2] (setting [7]), 12.5 µg/mL (≈ 37 µM); in [3] (setting [8]), 100 µg/mL (≈ 296 µM); in test [4] (setting [9]) it was 12.5 µg/mL (≈ 37 µM); in the test on Pasteurella multocida (24 h), less than 1.56 µg/mL. Besides, the MIC with Salmonella typhinurium (setting [10]) turned out to be 3.12 µg/mL (≈ 9.24 µM); in [5] (setting [10]), 1.56 µg/mL (≈ 4.62 µM); in the test on Streptococcus faecalis (setting [10]) it was 12.5 µg/mL (≈ 37 µM).

As to `CCCCCCCCCCCCCCNCCN1CCCN=CC(C)C1=O` (stereo not drawn) [Example 48, 1-tetradecylaminoethyl-3-methyl-3,6,7,8-tetrahydro-1,5-diazocin-2-one], the MIC was 12.5 µg/mL (≈ 32.9 µM) in the test with Escherichia coli NIHJ (24 h); 3.12 µg/mL (≈ 8.22 µM) in test [1] (setting [6]); 3.12 µg/mL (≈ 8.22 µM) in [2] (setting [7]); 50 µg/mL (≈ 132 µM) in [3] (IFO3443, 24 h); 6.25 µg/mL (≈ 16.5 µM) in test [4] (ATCC6633, 24 h); less than 1.56 µg/mL in the test on Pasteurella multocida (setting [10]). Moreover, the MIC in the test on Salmonella typhinurium (setting [10]) came out at 3.12 µg/mL (≈ 8.22 µM); in test [5] (setting [10]), 1.56 µg/mL (≈ 4.11 µM); with Streptococcus faecalis (24 h) it was 6.25 µg/mL (≈ 16.5 µM).

As to `CCCCCCCCCCCCCCC(O)CNCCN1CCN=CCCC1=O` (stereo not drawn) [Example 54, 4-(2-hydroxyhexadecyl)aminoethyl-2,3,6,7-tetrahydro-1,4-diazocin-5-one], the MIC with Escherichia coli NIHJ (24 h) is 6.25 µg/mL (≈ 15.3 µM); in [1] (24 h), 6.25 µg/mL (≈ 15.3 µM); in test [2] (IFO13699, 24 h), 6.25 µg/mL (≈ 15.3 µM); in test [3] (IFO3443, 24 h), 200 µg/mL (≈ 488 µM); in test [4] (ATCC6633, 24 h) it was 3.12 µg/mL (≈ 7.62 µM); with Pasteurella multocida (setting [10]), less than 1.56 µg/mL. Besides, the figures for the MIC (with Salmonella typhinurium (setting [10]); in test [5] (setting [10]); with Streptococcus faecalis (24 h)) were 3.12 µg/mL (≈ 7.62 µM), 1.56 µg/mL (≈ 3.81 µM) and 6.25 µg/mL (≈ 15.3 µM), respectively.

On to `CCCCCCCCCCCCCCNCCN1CC[N+](CC(=O)[O-])=C(C)CC1=O` [4-tetradecylaminoethyl-7-methyl-1-azonia-4-azacyclohept-7-en-5-one-1-acetate], for which the MIC in the test on Escherichia coli NIHJ (24 h) is 100 µg/mL (≈ 236 µM); in test [1] (Table 2, derivatives having a carboxylate radical, heart infusion agar, 37° C., 24 hours, read-out: MIC), 3.12 µg/mL (≈ 7.36 µM); in test [2] (IFO13699, Table 2, derivatives having a carboxylate radical, heart infusion agar, 37° C., 24 hours, read-out: MIC), 3.12 µg/mL (≈ 7.36 µM); in test [3] (IFO3443, 24 h), 100 µg/mL (≈ 236 µM); in test [4] (ATCC6633, 24 h), 12.5 µg/mL (≈ 29.5 µM); in the test with Pasteurella multocida (setting [10]) it was 3.12 µg/mL (≈ 7.36 µM). For the same compound, the MIC in the test on Salmonella typhinurium (24 h) was found to be 6.25 µg/mL (≈ 14.8 µM); in test [5] (setting [10]), 3.12 µg/mL (≈ 7.36 µM); against Streptococcus faecalis (24 h), 6.25 µg/mL (≈ 14.8 µM).

For `CCCCCCCCCCCCCCNCCN1CCCN=CC(C)(C)C1=O` [Example 60, 1-tetradecylaminoethyl-3,3-dimethyl-6,7,8-trihydro-1,5-diazocin-5-one], the MIC in the test with Escherichia coli NIHJ (24 h) was 12.5 µg/mL (≈ 31.8 µM); in test [1] (24 h), 6.25 µg/mL (≈ 15.9 µM); in [2] (IFO13699, 24 h), 6.25 µg/mL (≈ 15.9 µM); in [3] (IFO3443, 24 h), 100 µg/mL (≈ 254 µM); in [4] (ATCC6633, 24 h) it was 3.12 µg/mL (≈ 7.93 µM); with Pasteurella multocida (setting [10]), less than 1.56 µg/mL. Also, the MIC in the test with Salmonella typhinurium (setting [10]) stood at 3.12 µg/mL (≈ 7.93 µM); in test [5] (setting [10]), 1.56 µg/mL (≈ 3.96 µM); against Streptococcus faecalis (24 h), 6.25 µg/mL (≈ 15.9 µM).

On to `CCCCCCCCCCCCCCC(O)CNCCN1CCN=CC(C)(C)C1=O` (stereo not drawn) [Example 59, 4-(2-hydroxyhexadecyl)aminoethyl-6,6-dimethyl-3-hydro-2H-1,4-diazepin-5-one], for which the MIC with Escherichia coli NIHJ (setting [6]) was 25 µg/mL (≈ 59 µM); in [1] (setting [6]), 6.25 µg/mL (≈ 14.8 µM); in test [2] (setting [7]) it was 3.12 µg/mL (≈ 7.36 µM); in [3] (setting [8]), 100 µg/mL (≈ 236 µM); in [4] (ATCC6633, 24 h) it was 3.12 µg/mL (≈ 7.36 µM); with Pasteurella multocida (setting [10]) it was less than 1.56 µg/mL. Further, the MIC with Salmonella typhinurium (setting [10]) came out at 3.12 µg/mL (≈ 7.36 µM); in test [5] (setting [10]) it was 1.56 µg/mL (≈ 3.68 µM); in the test with Streptococcus faecalis (setting [10]), 6.25 µg/mL (≈ 14.8 µM).

Regarding `CCCCCCCCCCCCCCNCCN1CCN=CC(C)C1=O` (stereo not drawn) [Example 40, 4-tetradecylaminoethyl-6-methyl-3,6-dihydro-2H-1,4-diazepin-5-one], the MIC was 6.25 µg/mL (≈ 17.1 µM) in the test with Escherichia coli NIHJ (24 h); 1.56 µg/mL (≈ 4.27 µM) in [1] (setting [6]); 1.56 µg/mL (≈ 4.27 µM) in test [2] (setting [7]); 50 µg/mL (≈ 137 µM) in test [3] (IFO3443, 24 h); 3.12 µg/mL (≈ 8.53 µM) in [4] (ATCC6633, 24 h); less than 1.56 µg/mL in the test with Pasteurella multocida (setting [10]). Further, the MIC in the test on Salmonella typhinurium (setting [10]) is 3.12 µg/mL (≈ 8.53 µM); in test [5] (setting [10]) it was less than 1.56 µg/mL; in the test on Streptococcus faecalis (24 h), 3.12 µg/mL (≈ 8.53 µM).
